According to PMC8187479, “Sugar phosphate activation of the stress sensor eIF2B” (Nature Communications, 2021):
Positions count from the first letter of the chain named. Values joined by “and” are separate entries in the source; they are usually repeats but may differ in a detail not shown here. Equal entries are not always repeated. Values belong to the molecule of their own block, whether it stands above or below them.

Key:
[1] = biological target: T1, eIF2Bα^N208Y (Homo sapiens, UniProt Q14232, N208Y); assay: Isothermal titration calorimetry, eIF2Bα N208Y; assay type: binding; conditions: ITC
T1 construct: made in house; host or cells: E. coli BL21(DE3)
T1 sequence (Q14232 1-305 N208Y): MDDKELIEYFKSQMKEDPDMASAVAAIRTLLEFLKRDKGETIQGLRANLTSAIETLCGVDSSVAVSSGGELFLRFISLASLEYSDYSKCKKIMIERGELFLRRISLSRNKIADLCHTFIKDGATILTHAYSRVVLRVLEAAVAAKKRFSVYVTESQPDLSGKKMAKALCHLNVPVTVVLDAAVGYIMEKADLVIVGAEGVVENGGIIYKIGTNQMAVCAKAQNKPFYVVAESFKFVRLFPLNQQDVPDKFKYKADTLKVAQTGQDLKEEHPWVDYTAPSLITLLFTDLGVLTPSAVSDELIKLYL
Protocol: (§1) Interactions between recombinant protein and sugar phosphates were conducted with a MicroCal PEAQ-ITC (Malvern Panalytical Inc.). Experiments were performed in 25 mM HEPES, 150 mM NaCl, pH 7.5 at 20 °C. The sugar phosphate concentration in the syringe was 1 mM or 1.5 mM, and ~3.5 μL aliquots were injected into cells containing 300 μL eIF2Bα or eIF2B(βδγε) at a concentration of 20–30 μM. The final titration curves were fitted using MicroCal ITC data analysis software, assuming a single binding site per monomer.

[2] = biological target: T2, eIF2Bα (Homo sapiens, UniProt Q14232); assay: Isothermal titration calorimetry, wild-type eIF2Bα; assay type: binding
T2 construct: made in house; host or cells: E. coli BL21(DE3)
T2 sequence (Q14232 1-305): T1 sequence (Q14232 1-305 N208Y) with Y208N
Protocol: as §1

[3] = biological target: T2, eIF2Bα; assay: Differential scanning fluorimetry (Protein Thermal Shift), eIF2Bα Tm; assay type: binding; conditions: individual replicates Rep 1-4, control without metabolite about 64.1
Protocol: The effect of metabolite binding on eIF2Bα Tm was assessed using the Protein Thermal Shift assay (Thermo Fisher), following manufacturer’s instructions. Briefly, reaction conditions for each 20 μL reaction were: 1.1 μg (1.5 μM) of eIF2Bα, 5 μl Thermal Shift buffer, 1X Thermal Shift dye, and metabolites in dose response. Reactions were run in 384-well format on a QuantStudio 6 Flex instrument (Thermo Fisher). The resulting melt curves were analyzed using Protein Thermal Shift Software, and eIF2Bα Tms for each condition were calculated by fitting to the Boltzmann function.

[4] = biological target: T2, eIF2Bα; assay: MIDAS (mass spectrometry integrated with equilibrium dialysis) metabolite binding screen
Procedure, shortened: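 Hits called at Storey q < 0.1 on z-scores of PCA-corrected log2 fold change between protein and metabolite chambers, quantified by FIA-MS in triplicate.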

[5] = biological target: T3, eIF2B (Homo sapiens, UniProt P49770+Q14232+Q9UI10); assay: eIF2B GEF activity assay, unbiased metabolite screen (Bodipy-FL-GDP release); assay type: biochemical; conditions: 10 μM metabolite
T3 construct: made in house; host or cells: eIF2Bα: E. coli BL21(DE3)
T3 sequence (Q14232 whole entry): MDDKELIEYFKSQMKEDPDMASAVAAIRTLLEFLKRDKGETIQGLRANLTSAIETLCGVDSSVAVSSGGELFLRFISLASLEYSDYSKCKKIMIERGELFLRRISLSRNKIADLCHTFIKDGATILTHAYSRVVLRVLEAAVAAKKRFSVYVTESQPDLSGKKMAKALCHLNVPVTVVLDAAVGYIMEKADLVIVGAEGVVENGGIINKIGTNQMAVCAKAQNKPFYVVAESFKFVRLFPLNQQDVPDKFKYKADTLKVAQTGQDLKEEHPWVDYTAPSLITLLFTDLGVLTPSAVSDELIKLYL
T3 sequence (P49770 whole entry): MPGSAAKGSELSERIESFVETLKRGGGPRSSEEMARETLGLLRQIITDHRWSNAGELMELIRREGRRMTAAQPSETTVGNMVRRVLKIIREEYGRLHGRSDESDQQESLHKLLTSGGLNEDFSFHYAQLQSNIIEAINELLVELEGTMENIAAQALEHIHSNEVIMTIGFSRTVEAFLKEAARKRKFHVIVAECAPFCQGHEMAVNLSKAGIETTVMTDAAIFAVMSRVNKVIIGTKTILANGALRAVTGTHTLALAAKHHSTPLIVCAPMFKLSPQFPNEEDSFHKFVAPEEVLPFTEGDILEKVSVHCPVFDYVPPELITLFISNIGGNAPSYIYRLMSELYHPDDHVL
T3 sequence (Q9UI10 whole entry): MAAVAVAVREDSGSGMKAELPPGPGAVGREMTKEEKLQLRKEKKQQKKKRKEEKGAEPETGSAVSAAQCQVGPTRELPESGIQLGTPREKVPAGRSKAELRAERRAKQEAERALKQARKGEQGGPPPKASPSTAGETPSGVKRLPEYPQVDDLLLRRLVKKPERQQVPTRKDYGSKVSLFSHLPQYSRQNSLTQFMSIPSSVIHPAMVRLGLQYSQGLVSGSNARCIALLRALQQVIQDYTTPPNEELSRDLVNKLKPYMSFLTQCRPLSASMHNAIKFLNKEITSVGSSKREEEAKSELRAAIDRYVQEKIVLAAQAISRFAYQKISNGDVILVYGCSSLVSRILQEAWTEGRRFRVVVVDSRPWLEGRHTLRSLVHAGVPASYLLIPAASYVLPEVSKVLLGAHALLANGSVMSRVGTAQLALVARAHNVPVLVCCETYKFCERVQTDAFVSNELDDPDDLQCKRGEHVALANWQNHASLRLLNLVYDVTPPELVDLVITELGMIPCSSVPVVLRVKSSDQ
T3 sequence (Q9NR50 whole entry partner): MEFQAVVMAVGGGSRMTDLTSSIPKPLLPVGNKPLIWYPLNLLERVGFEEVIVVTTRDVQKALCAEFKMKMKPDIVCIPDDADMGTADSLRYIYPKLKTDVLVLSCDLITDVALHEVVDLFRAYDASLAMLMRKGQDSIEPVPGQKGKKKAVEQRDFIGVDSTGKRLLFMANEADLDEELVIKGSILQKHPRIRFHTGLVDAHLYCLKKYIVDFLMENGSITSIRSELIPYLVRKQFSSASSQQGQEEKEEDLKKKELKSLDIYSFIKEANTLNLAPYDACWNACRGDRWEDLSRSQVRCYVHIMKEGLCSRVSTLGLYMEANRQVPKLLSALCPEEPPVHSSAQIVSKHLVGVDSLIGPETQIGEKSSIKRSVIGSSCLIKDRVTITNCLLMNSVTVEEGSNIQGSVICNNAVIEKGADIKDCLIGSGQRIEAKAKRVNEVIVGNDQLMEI
T3 sequence (Q13144 whole entry partner): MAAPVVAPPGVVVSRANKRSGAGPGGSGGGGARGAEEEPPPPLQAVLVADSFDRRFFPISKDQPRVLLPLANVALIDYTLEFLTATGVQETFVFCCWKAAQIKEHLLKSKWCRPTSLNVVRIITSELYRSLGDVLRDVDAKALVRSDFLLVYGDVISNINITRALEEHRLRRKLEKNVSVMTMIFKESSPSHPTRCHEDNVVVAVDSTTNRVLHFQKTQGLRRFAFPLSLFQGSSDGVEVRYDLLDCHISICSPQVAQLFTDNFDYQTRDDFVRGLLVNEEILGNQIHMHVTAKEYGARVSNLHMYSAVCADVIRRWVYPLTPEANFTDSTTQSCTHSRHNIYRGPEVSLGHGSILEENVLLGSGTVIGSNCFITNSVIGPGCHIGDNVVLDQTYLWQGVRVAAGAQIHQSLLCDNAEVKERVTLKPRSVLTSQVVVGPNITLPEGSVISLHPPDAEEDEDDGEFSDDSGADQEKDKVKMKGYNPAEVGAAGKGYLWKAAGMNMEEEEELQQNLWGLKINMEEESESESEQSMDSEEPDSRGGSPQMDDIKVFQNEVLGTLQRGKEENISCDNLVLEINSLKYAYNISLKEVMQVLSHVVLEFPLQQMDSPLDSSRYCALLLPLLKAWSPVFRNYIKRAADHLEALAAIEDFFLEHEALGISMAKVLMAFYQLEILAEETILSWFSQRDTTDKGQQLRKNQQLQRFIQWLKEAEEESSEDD
Protocol: Bodipy-FL-GDP-loaded eIF2 was used as a substrate for recombinant eIF2B. The assay was performed in 384-well plates. Reactions were read on a SpectraMax i3x plate reader (Molecular Devices) using the instrument’s Softmax Pro software with the following parameters: plate temperature = 25 °C; excitation wavelength = 485 nm (15 nm width); emission wavelength = 535 nm (25 nm width); read duration = 30 min at 45 s intervals. Data were analyzed in Prism. GDP release half-lives were calculated by fitting single-exponential decay curves.
For unbiased screening, MIDAS metabolite libraries at 10 mM stock concentration were dispensed into wells of the assay plate using an Echo Acoustic Liquid Handler (Labcyte). […] A single well was run for each metabolite. […] For targeted experiments with HEK293T lysates, the following conditions were used: 50 nM Bodipy-FL-GDP-loaded eIF2, 0.1 mM GDP, 1 mg/ml BSA, 0.1 or 0.3 mg/ml lysates.

Molecule: O=C[C@@H](O)[C@@H](O)[C@H](O)[C@H](O)COP(=O)(O)O [M6P, mannose-6-phosphate]
interaction with eIF2Bα N208Y [1]: does not interact | Kd ([2]; ITC, wild-type eIF2Bα): 282 ± 35 µM | ITC binding isotherm, heat per mole of injectant ([2]; molar ratio 0.225339): -1.246 kcal/mol | ITC binding isotherm, heat per mole of injectant ([2]; molar ratio 0.415168): -1.08 kcal/mol | ITC binding isotherm, heat per mole of injectant ([2]; molar ratio 0.606855): -1.012 kcal/mol | ITC binding isotherm, heat per mole of injectant ([2]; molar ratio 0.8004): -0.9251 kcal/mol | ITC binding isotherm, heat per mole of injectant ([2]; molar ratio 0.995804): -0.7798 kcal/mol | ITC binding isotherm, heat per mole of injectant ([2]; molar ratio 1.19307): -0.7719 kcal/mol | ITC binding isotherm, heat per mole of injectant ([2]; molar ratio 1.39219): -0.7333 kcal/mol | ITC binding isotherm, heat per mole of injectant ([2]; molar ratio 1.59317): -0.643 kcal/mol | ITC binding isotherm, heat per mole of injectant ([2]; molar ratio 1.796): -0.5884 kcal/mol | ITC binding isotherm, heat per mole of injectant ([2]; molar ratio 2.0007): -0.5938 kcal/mol | ITC binding isotherm, heat per mole of injectant ([2]; molar ratio 2.20725): -0.6099 kcal/mol | ITC binding isotherm, heat per mole of injectant ([2]; molar ratio 2.41567): -0.5269 kcal/mol | ITC binding isotherm, heat per mole of injectant ([2]; molar ratio 2.62594): -0.5106 kcal/mol | ITC binding isotherm, heat per mole of injectant ([2]; molar ratio 2.83807): -0.4795 kcal/mol | ITC binding isotherm, heat per mole of injectant ([2]; molar ratio 3.05206): -0.426 kcal/mol | ITC binding isotherm, heat per mole of injectant ([2]; molar ratio 3.2679): -0.4467 kcal/mol | ITC binding isotherm, heat per mole of injectant ([2]; molar ratio 3.48561): -0.4459 kcal/mol | ITC binding isotherm, heat per mole of injectant ([2]; molar ratio 3.70517): -0.1953 kcal/mol | Tm of eIF2Bα ([3]; 0.33 mM metabolite): 64.7587 °C and 64.5257 °C and 64.0751 °C and 63.7209 °C | Tm of eIF2Bα ([3]; 1 mM metabolite): 66.0911 °C and 65.9704 °C and 65.2776 °C and 64.2935 °C | Tm of eIF2Bα ([3]; 5 mM metabolite): 66.7846 °C and 66.6099 °C and 66.516 °C and 65.7833 °C

Molecule: O=C[C@H](O)[C@H](O)[C@H](O)COP(=O)(O)O [Ribose-5-phosphate]
Tm of eIF2Bα ([3]; 0.33 mM metabolite): 63.6082 °C and 63.1309 °C and 63.9035 °C and 63.9145 °C | Tm of eIF2Bα ([3]; 1 mM metabolite): 65.8453 °C and 64.5885 °C and 66.0863 °C and 66.0043 °C | Tm of eIF2Bα ([3]; 3.3 mM metabolite): 65.9356 °C and 65.2316 °C and 66.3491 °C and 65.7067 °C | Tm of eIF2Bα ([3]; 10 mM metabolite): 67.199 °C and 66.1831 °C and 67.4737 °C and 67.2666 °C

log2(corrected fold change) ([4]; MIDAS screen, sheet eIF2Ba, metabolites screened in pools 1-4, p-value and q-value given): 1.855 | MIDAS result (enrichment in the protein chamber / hit status) ([4]; eIF2Bα2, 50 μM per metabolite pool, 40 h dialysis at 4 °C): a strong hit in MIDAS | effect on eIF2B GEF activity in the screen [5]: a hit in this functional assay screen
Molecule: O=c1ccn([C@@H]2O[C@H](COP(=O)(O)O)[C@@H](O)[C@H]2O)c(=O)[nH]1 [UMP, Uridine monophosphate]
Tm of eIF2Bα ([3]; 0.33 mM metabolite): 64.124 °C and 63.8726 °C and 64.7063 °C and 64.4005 °C | Tm of eIF2Bα ([3]; 1 mM metabolite): 65.4937 °C and 64.6631 °C and 66.2688 °C and 66.0835 °C | Tm of eIF2Bα ([3]; 5 mM metabolite): 67.0947 °C and 66.2443 °C and 67.297 °C and 67.2174 °C

Molecule: Glucose-6-phosphate
Tm of eIF2Bα ([3]; 0.33 mM metabolite): 64.7198 °C and 64.0494 °C and 65.062 °C and 64.7755 °C | Tm of eIF2Bα ([3]; 1 mM metabolite): 65.3152 °C and 64.2994 °C and 65.8081 °C and 65.8236 °C | Tm of eIF2Bα ([3]; 3.3 mM metabolite): 65.2749 °C and 64.6195 °C and 65.7728 °C and 65.1105 °C | Tm of eIF2Bα ([3]; 10 mM metabolite): 66.5112 °C and 65.3473 °C and 66.6482 °C and 66.6125 °C
